The source of these data is PubChem BioAssay AID330 (DTP/NCI, 2004).

This assay concerns P388 leukemia ip, CD2F1 mice, survival T/C. Description: NCI In Vivo Anticancer Drug Screen. Data for tumor model P388 Leukemia (intraperitoneal) in CD2F1 (CDF1) mice. As to conditions: endpoint: median survival time, higher = longer survival. The method in brief: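 Mice carrying the transplanted tumor received test compound or vehicle. Survival was recorded in each group, and the value is the treated-group measurement divided by that of the vehicle-treated control group.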

The mark [1] stands for this setting: dose: 50.0 mg/kg/injection, schedule: Q01DX005 (ip), vehicle: Klucel (hydroxypropylcellulose) (HPC).
[2] abbreviates: dose: 100.0 mg/kg/injection, schedule: Q01DX005 (ip), vehicle: Klucel (hydroxypropylcellulose) (HPC).
[3] abbreviates: dose: 200.0 mg/kg/injection, schedule: Q01DX005 (ip), vehicle: Klucel (hydroxypropylcellulose) (HPC).
Where [4] appears, read: dose: 12.5 mg/kg/injection, schedule: Q01DX009 (ip), vehicle: Klucel (hydroxypropylcellulose) (HPC).
Setting [5] is: dose: 25.0 mg/kg/injection, schedule: Q01DX009 (ip), vehicle: Klucel (hydroxypropylcellulose) (HPC).
[6] abbreviates: dose: 50.0 mg/kg/injection, schedule: Q01DX009 (ip), vehicle: Klucel (hydroxypropylcellulose) (HPC).

Each structure is given as a SMILES string. Values joined by “and” are separate entries in the source; they are usually repeats but may differ in a detail not shown here. Equal values may be shown once. Inconclusive results and toxic doses are left out.

In the case of `O=C1Oc2ccccc2[C@@H]2[C@H]1[C@@H]1C(=O)Oc3ccccc3[C@@H]12`, the T/C was 97 % of control under setting [1], 97 % of control under setting [2] and 100 % of control under setting [3].
In the case of `Cn1c(=S)[nH]c2c(c1=O)CCCN2`, the T/C was 101 % of control (dose: 100.0 mg/kg/injection, schedule: Q01DX001 (ip), vehicle: Klucel (hydroxypropylcellulose) (HPC)); 99 % of control (dose: 200.0 mg/kg/injection, schedule: Q01DX001 (ip), vehicle: Klucel (hydroxypropylcellulose) (HPC)); 95 % of control (dose: 400.0 mg/kg/injection, schedule: Q01DX001 (ip), vehicle: Klucel (hydroxypropylcellulose) (HPC)).
On to `O=NN(CCCl)C(=O)NC1CCC(=O)NC1=O` (stereo unspecified), for which the T/C was 122 % of control (dose: 0.5 mg/kg/injection, schedule: Q04DX003 (ip), vehicle: saline); 154 % of control (dose: 1.0 mg/kg/injection, schedule: Q04DX003 (ip), vehicle: saline); 214 % of control (dose: 2.0 mg/kg/injection, schedule: Q01DX005 (ip), vehicle: saline + alcohol); 117 % of control (dose: 2.0 mg/kg/injection, schedule: Q01DX005 (iv), vehicle: saline + alcohol); 195 % of control (dose: 2.0 mg/kg/injection, schedule: Q04DX003 (ip), vehicle: saline); 118 % of control (dose: 3.13 mg/kg/injection, schedule: Q01DX009 (ip), vehicle: saline with Tween-80). The T/C is, setting by setting: (dose: 4.0 mg/kg/injection, schedule: Q01DX001 (ip), vehicle: saline + alcohol) 172 % of control; (dose: 4.0 mg/kg/injection, schedule: Q01DX005 (ip), vehicle: saline + alcohol) 315 % of control; (dose: 4.0 mg/kg/injection, schedule: Q01DX005 (iv), vehicle: saline + alcohol) 205 % of control; (dose: 4.0 mg/kg/injection, schedule: Q01DX005 (oral), vehicle: saline + alcohol) 207 % of control; (dose: 4.0 mg/kg/injection, schedule: Q04DX003 (ip), vehicle: saline with Tween-80) 272 % of control; (dose: 4.0 mg/kg/injection, schedule: Q04DX003 (ip), vehicle: saline) 263 % of control. The T/C is 272 % of control (dose: 6.0 mg/kg/injection, schedule: Q04DX003 (ip), vehicle: saline with Tween-80); 109 % of control (dose: 6.25 mg/kg/injection, schedule: Q01DX009 (ip), vehicle: saline with Tween-80); 232 % of control (dose: 8.0 mg/kg/injection, schedule: Q01DX001 (ip), vehicle: saline + alcohol); 158 % of control (dose: 8.0 mg/kg/injection, schedule: Q01DX001 (iv), vehicle: saline + alcohol); 252 % of control (dose: 8.0 mg/kg/injection, schedule: Q01DX005 (iv), vehicle: saline + alcohol); 315 % of control (dose: 8.0 mg/kg/injection, schedule: Q01DX005 (oral), vehicle: saline + alcohol). Also, the T/C is 272 % of control (dose: 9.0 mg/kg/injection, schedule: Q04DX003 (ip), vehicle: saline with Tween-80); 87 % of control (dose: 12.5 mg/kg/injection, schedule: Q04DX003 (ip), vehicle: saline with Tween-80); 517 % of control (dose: 13.0 mg/kg/injection, schedule: Q01DX001 (ip), vehicle: saline with Tween-80); 312 % of control (dose: 16.0 mg/kg/injection, schedule: Q01DX001 (ip), vehicle: saline + alcohol); 203 % of control (dose: 16.0 mg/kg/injection, schedule: Q01DX001 (iv), vehicle: saline + alcohol); 187 % of control (dose: 16.0 mg/kg/injection, schedule: Q01DX001 (oral), vehicle: saline + alcohol). In addition, for the setting “dose: 16.0 mg/kg/injection, schedule: Q01DX005 (oral), vehicle: saline + alcohol”, the T/C is 119 % of control.
`CCc1cc2c(c3c1C(=O)CC3)C(C)(C)CCC2`: the T/C is 106 % of control (dose: 50.0 mg/kg/injection, schedule: Q01DX005 (ip), vehicle: saline + Tween-80 + alcohol); 92 % of control (dose: 100.0 mg/kg/injection, schedule: Q01DX005 (ip), vehicle: saline + Tween-80 + alcohol); 97 % of control (dose: 200.0 mg/kg/injection, schedule: Q01DX005 (ip), vehicle: saline + Tween-80 + alcohol).
On to `C[n+]1c(-c2ccccc2)c2cc(N)ccc2c2ccc(N)cc21`, for which the T/C is 106 % of control (dose: 1.56 mg/kg/injection, schedule: Q04DX003 (ip), vehicle: saline with Tween-80); 107 % of control (dose: 3.13 mg/kg/injection, schedule: Q04DX003 (ip), vehicle: saline with Tween-80); 118 % of control (dose: 6.25 mg/kg/injection, schedule: Q04DX003 (ip), vehicle: saline with Tween-80); 124 % of control (dose: 25.0 mg/kg/injection, schedule: Q04DX003 (ip), vehicle: saline with Tween-80).
With `COc1cc(/C=C/C(=O)Sc2ccccc2)cc(OC)c1O`, the T/C reads like this: (dose: 60.0 mg/kg/injection, schedule: Q01DX005 (ip), vehicle: saline with Tween-80) 109 % of control; (dose: 120.0 mg/kg/injection, schedule: Q01DX005 (ip), vehicle: saline with Tween-80) 105 % of control; (dose: 240.0 mg/kg/injection, schedule: Q01DX005 (ip), vehicle: saline with Tween-80) 100 % of control.
For the molecule `CSCc1csc(N)n1`, the T/C runs as follows: (dose: 12.5 mg/kg/injection, schedule: Q01DX009 (ip), vehicle: other) 102 % of control; (dose: 25.0 mg/kg/injection, schedule: Q01DX009 (ip), vehicle: other) 96 % of control; (dose: 50.0 mg/kg/injection, schedule: Q01DX009 (ip), vehicle: other) 111 % of control; (dose: 100.0 mg/kg/injection, schedule: Q01DX009 (ip), vehicle: other) 111 % of control; (dose: 200.0 mg/kg/injection, schedule: Q01DX009 (ip), vehicle: other) 100 % of control.
Regarding `Cc1ccccc1C1NC(c2ccccc2C)C2CCCC1C2=O` (stereo unspecified), the T/C was 89 % of control (dose: 100.0 mg/kg/injection, schedule: Q04DX003 (ip), vehicle: saline); 96 % of control (dose: 200.0 mg/kg/injection, schedule: Q04DX003 (ip), vehicle: saline); 93 % of control (dose: 400.0 mg/kg/injection, schedule: Q04DX003 (ip), vehicle: saline).
Consider `C=CC(C)(C)c1cc(O)c(OC)cc1O`, for which the T/C is, setting by setting: under setting [1], 95 % of control; under setting [2], 102 % of control; under setting [3], 100 % of control.
On to `Br/C(C=Nc1ccccc1)=C\Nc1ccccc1`, for which the T/C (dose: 100.0 mg/kg/injection, schedule: Q04DX003 (ip), vehicle: saline with Tween-80) is 118 % of control; the T/C (dose: 200.0 mg/kg/injection, schedule: Q04DX003 (ip), vehicle: saline with Tween-80) is 109 % of control; the T/C (dose: 400.0 mg/kg/injection, schedule: Q04DX003 (ip), vehicle: saline with Tween-80) was 104 % of control.
For `CC(=O)NCc1cc(C)c(CC#N)cc1CC#N`, the T/C (dose: 6.25 mg/kg/injection, schedule: Q01DX009 (ip), vehicle: distilled water + Tween-80) is 100 % of control; the T/C (dose: 12.5 mg/kg/injection, schedule: Q01DX009 (ip), vehicle: distilled water + Tween-80) was 89 % of control and 91 % of control; the T/C (dose: 25.0 mg/kg/injection, schedule: Q01DX009 (ip), vehicle: distilled water + Tween-80) was 103 % of control; the T/C (dose: 50.0 mg/kg/injection, schedule: Q01DX009 (ip), vehicle: distilled water + Tween-80) is 94 % of control; the T/C (dose: 100.0 mg/kg/injection, schedule: Q01DX009 (ip), vehicle: distilled water + Tween-80) is 94 % of control.
Consider `COc1ccc(N=Nc2c(C)[nH]n(C)c2=O)cc1`, for which the T/C reads like this: (dose: 100.0 mg/kg/injection, schedule: Q04DX002 (ip), vehicle: saline with Tween-80) 96 % of control; (dose: 200.0 mg/kg/injection, schedule: Q04DX002 (ip), vehicle: saline with Tween-80) 97 % of control.
As to `[N-]=[N+]=C1N=CN=C1c1ncn[nH]1`, the T/C is 113 % of control (dose: 3.12 mg/kg/injection, schedule: Q01DX009 (ip), vehicle: Klucel (hydroxypropylcellulose) (HPC)); 150 % of control under setting [4]; 155 % of control under setting [5]; 160 % of control under setting [6].
Turning to `COc1cc(C2OC(=O)c3ccccc3S2)ccc1O` (stereo unspecified), the T/C (dose: 6.25 mg/kg/injection, schedule: Q01DX009 (ip), vehicle: Klucel (hydroxypropylcellulose) (HPC)) was 114 % of control; the T/C under setting [4] was 110 % of control and 119 % of control; the T/C under setting [5] is 114 % of control and 120 % of control; the T/C under setting [6] was 106 % of control; the T/C (dose: 100.0 mg/kg/injection, schedule: Q01DX009 (ip), vehicle: Klucel (hydroxypropylcellulose) (HPC)) is 118 % of control.
